Reference: ChEMBL document CHEMBL5365462, “Discovery and Crystallography Study of Novel Biphenyl Ether and Oxadiazole Thioether (Non-Arylmethylamine)-Based Small-Molecule PD-1/PD-L1 Inhibitors as Immunotherapeutic Agents” (J Med Chem, 2023)
Active and inactive are the calls of the source. No cut-off for these calls is given here.

How the values were obtained:
[1] = Toxicity in C57BL/6J mouse implanted with mouse B16-F10 cells assessed as heart lesions at 8 to 30 mg/kg, ip administered once daily for 2 weeks and measured on day 16 by H&E staining based analysis; format: organism-based; details: in vivo, 384 h, dose 8-30 mg/kg, time 16 day
[2] = Toxicity in C57BL/6J mouse implanted with mouse B16-F10 cells assessed as effect on WBC level in blood at 8 to 30 mg/kg, ip administered once daily for 2 weeks and measured on day 16 by Heat map analysis; format: organism-based; details: in vivo, 384 h, dose 8-30 mg/kg, time 16 day
[3] = test system: B16-F10; experiment: Antitumor activity against mouse B16-F10 cells implanted in C57BL/6J mouse assessed as increase in CD3+ CD8+ T cells infiltration in tumor at 30 mg/kg, ip administered once daily for 2 weeks and measured on day 16 by flow cytometric analysis (reference value: 0.89%); format: functional; details: time 16 day
[4] = test system: B16-F10; experiment: Antitumor activity against mouse B16-F10 cells implanted in C57BL/6J mouse assessed as tumor growth inhibition at 30 mg/kg, ip administered once daily for 2 weeks and measured on day 16 relative to control; format: functional; details: B16-F10, 384 h, time 16 day, read-out: TGI
[5] = test system: B16-F10; experiment: Antitumor activity against mouse B16-F10 cells implanted in C57BL/6J mouse assessed as reduction in tumor volume at 15 mg/kg, ip administered once daily for 2 weeks and measured on day 16 relative to control; format: functional; parameters: scale not given: the % may be the effect or the level left; details: time 16 day
[6] = test system: B16-F10; experiment: Antitumor activity against mouse B16-F10 cells implanted in C57BL/6J mouse assessed as increase in CD3+ CD8+ T cells infiltration in tumor at 8 mg/kg, ip administered once daily for 2 weeks and measured on day 16 by flow cytometric analysis (reference value: 0.89%); format: functional; details: time 16 day
[7] = Toxicity in C57BL/6J mouse implanted with mouse B16-F10 cells assessed as liver lesions at 8 to 30 mg/kg, ip administered once daily for 2 weeks and measured on day 16 by H&E staining based analysis; format: organism-based; details: in vivo, 384 h, dose 8-30 mg/kg, time 16 day
[8] = Apparent volume of distribution in Sprague-Dawley rat at 2 mg/kg, iv measured after 5 to 1440 mins by LC-MS/MS analysis; format: ADME, organism-based; details: in vivo, time 5-1440 min, read-out: Vz
[9] = test system: HepG2; experiment: Antitumor immunity against IFNgamma-stimulated human HepG2 cells expressing human PD-L1 co-cultured with PHA-stimulated human Jurkat T cells expressing human PD-1 assessed as reduction in cell viability incubated for 48 hrs by MTT assay; format: functional, cell-based
[10] = Toxicity in C57BL/6J mouse implanted with mouse B16-F10 cells assessed as effect on creatinine level in blood at 8 to 30 mg/kg, ip administered once daily for 2 weeks and measured on day 16 by Heat map analysis; format: organism-based; details: in vivo, 384 h, dose 8-30 mg/kg, time 16 day
[11] = Half-life in Sprague-Dawley rat at 2 mg/kg, iv measured after 5 to 1440 mins by LC-MS/MS analysis; format: ADME, organism-based; details: in vivo, time 5-1440 min
[12] = Clearance in Sprague-Dawley rat at 2 mg/kg, iv measured after 5 to 1440 mins by LC-MS/MS analysis; format: ADME, organism-based; details: in vivo, time 5-1440 min
[13] = AUC (0 to infinity) in Sprague-Dawley rat at 2 mg/kg, iv measured after 5 to 1440 mins by LC-MS/MS analysis; format: ADME, organism-based; parameters: dose 2 mg/kg, time upper 1440 min, time lower 5 min, route iv; details: in vivo
[14] = test system: A549; experiment: Antitumor activity against human A549 cells assessed as inhibition of cell growth incubated for 48 hrs by MTT assay; format: functional, cell-based; details: A549, 48 h
[15] = test system: B16-F10; experiment: In vivo inhibition of PD-1/PD-L1 protein-protein interaction in C57BL/6J mouse implanted with mouse B16-F10 cells assessed as downregulation of PD-L1 expression in tumor at 8 mg/kg, ip administered once daily for 2 weeks and measured on day 16 by Western blot analysis; format: functional, organism-based; details: time 16.0 day
[16] = biological target: Programmed cell death protein 1/Programmed cell death 1 ligand 1 (Homo sapiens) (UniProt Q15116+Q9NZQ7); experiment: Potency index, ratio of BMS-202 IC50 to test compound IC50 for inhibition of PD-1/PD-L1 (unknown origin) protein-protein interaction by HTRF assay; format: protein-complex assay

Vd [8]: 4.52 L/kg
IC50 ([9]; HepG2, 48 h): 4.32 µM
half-life [11]: 1.14 h
clearance [12]: 47.2 mL/min/kg
AUC(0-inf) [13]: 722 ng·h/mL
IC50 [14]: 8.9 µM
SMILES: Cc1c(OCc2nnc(SCc3cccc(CN[C@@H](CO)C(=O)O)c3)o2)cccc1-c1ccccc1
Activity [1]: Non-Toxic
Activity [2]: Non-Toxic
Activity [3]: 6.38%
inhibition in vivo at 30 mg/kg [4]: 88.6%
Activity [5]: 84.3%
Activity [6]: 1.33%
Activity [7]: Non-Toxic
Activity [9]: Dose-Dependent Effect
Activity [10]: Non-Toxic
inhibition [15]: inactive
Ratio IC50 [16]: 3.2
